This passage reports Activity, inhibition and IC50 results from ChEMBL document CHEMBL2034967, “Lipophilic amines as potent inhibitors of N-acylethanolamine-hydrolyzing acid amidase” (Bioorg Med Chem, 2012).

Assay [1] deals with T1, N-acylethanolamine-hydrolyzing acid amidase (Rattus norvegicus) (UniProt Q5KTC7).
T1 sequence (whole entry): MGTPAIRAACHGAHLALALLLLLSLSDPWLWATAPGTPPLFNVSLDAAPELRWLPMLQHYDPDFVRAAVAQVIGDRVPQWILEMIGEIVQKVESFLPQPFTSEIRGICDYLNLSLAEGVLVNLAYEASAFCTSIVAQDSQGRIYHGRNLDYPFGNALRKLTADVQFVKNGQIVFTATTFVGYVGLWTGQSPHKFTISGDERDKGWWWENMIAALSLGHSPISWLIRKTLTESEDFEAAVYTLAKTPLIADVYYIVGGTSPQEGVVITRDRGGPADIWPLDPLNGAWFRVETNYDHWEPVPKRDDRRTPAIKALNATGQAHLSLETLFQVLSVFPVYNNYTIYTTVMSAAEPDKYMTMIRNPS
Put plainly: Inhibition of Wistar/ST rat lung NAAA assessed as residual activity for conversion of [14C]PEA to [14C]palmitic acid at 100 uM after 20 mins relative to control.

Assay [2] concerns the target T1, N-acylethanolamine-hydrolyzing acid amidase (Rattus norvegicus). Put plainly: Inhibition of Wistar/ST rat lung NAAA assessed as conversion of [14C]PEA to [14C]palmitic acid at 100 uM after 20 mins.
Assay [3] addresses T2, N-acylethanolamine-hydrolyzing acid amidase (Rattus norvegicus, UniProt Q5KTC7).
T2 sequence (Q5KTC7 whole entry): T1 sequence (whole entry)
Put plainly: Inhibition of Wistar/ST rat lung NAAA assessed as conversion of [14C]PEA to [14C]palmitic acid after 20 mins.

In assay [4] the target is T1, N-acylethanolamine-hydrolyzing acid amidase (Rattus norvegicus). Put plainly: Competitive inhibition of Wistar/ST rat lung NAAA using [14C]PEA as substrate at 5 uM by Line-Weaver Burk plot analysis.
For assay [5], the target named is T3, Fatty-acid amide hydrolase 1 (Rattus norvegicus) (UniProt P97612).
T3 sequence (whole entry): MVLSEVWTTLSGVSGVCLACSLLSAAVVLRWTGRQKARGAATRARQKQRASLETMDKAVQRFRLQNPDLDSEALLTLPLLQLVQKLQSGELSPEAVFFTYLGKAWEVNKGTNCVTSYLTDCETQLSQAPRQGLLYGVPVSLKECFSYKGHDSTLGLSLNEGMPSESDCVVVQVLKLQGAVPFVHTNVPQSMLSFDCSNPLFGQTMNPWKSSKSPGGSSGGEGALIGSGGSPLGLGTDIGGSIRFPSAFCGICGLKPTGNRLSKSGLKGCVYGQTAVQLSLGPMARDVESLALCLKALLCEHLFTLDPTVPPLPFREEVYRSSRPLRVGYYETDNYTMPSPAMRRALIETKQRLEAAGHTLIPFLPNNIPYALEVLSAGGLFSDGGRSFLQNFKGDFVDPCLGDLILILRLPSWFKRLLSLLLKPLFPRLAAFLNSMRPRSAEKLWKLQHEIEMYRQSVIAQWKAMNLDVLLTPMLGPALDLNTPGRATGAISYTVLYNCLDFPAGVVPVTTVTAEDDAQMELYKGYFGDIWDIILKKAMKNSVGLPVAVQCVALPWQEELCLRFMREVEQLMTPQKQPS
Put plainly: Inhibition of Wistar/ST rat liver FAAH assessed as conversion of [14C]PEA to [14C]palmitic acid at 100 uM at pH 5 after 20 mins.

Assay [6] deals with T3, Fatty-acid amide hydrolase 1 (Rattus norvegicus). Put plainly: Inhibition of Wistar/ST rat liver FAAH assessed as conversion of [14C]PEA to [14C]palmitic acid at 100 uM at pH 8.5 after 20 mins.
Assay [7] concerns the target T1, N-acylethanolamine-hydrolyzing acid amidase (Rattus norvegicus). Put plainly: Competitive inhibition of Wistar/ST rat lung NAAA using [14C]PEA as substrate at 10 uM by Line-Weaver Burk plot analysis.

Activity calls are given as the source filed them. No cut-off for these calls is given here.

For `CCCCCCCCCCCCCOC(=O)CCN`, the Activity in assay [1] amounted to 29%. Still for that read-out and setting: with `CCCCCCCCCCCC(=O)OCCCN` the figure was 63%.

Consider `CCCCCCCCCCCCN`, for which the inhibition result in assay [2] is “Active”.

Turning to `CCCCCCCCCCCCCCOC(=O)CCN`, the Activity in assay [1] was 30%. On the same count and under the same terms, with `CCCCCCCCCCCCOC(=O)CN` the figure was 34%. On the same count and under the same terms, to `CCCCCCCCCCCCCCOCCN` belongs 48%. Still for that read-out and setting: with `CCCCCCCCCC(=O)OCCCN` the figure was 55%. Regarding `CCCCCCCCCCCCCCCCOCCCN`, the Activity in assay [1] was 84%. The same measure, in the same setting: with `CCCCCCCCCCCCCC(=O)OCCCN` the figure was 46%; with `CCCCCCCCCCCCCCCOC(=O)CN`, 42%; with `CCCCCCCCCCCCCCCCOCCN`, 91%. Still for that read-out and setting: to `CCCCCCCCCCCCOCCCN` belongs 73%. For `CCCCCCCCCCCCCCCNC(=O)C1CCCCC1`, the inhibition entry in assay [2] is “inactive”. Regarding `CCCCCCCCCCCCCCCC(=O)OCCCN`, the Activity in assay [1] worked out at 48%. Regarding `CCCCCCCCCCCCCCCC(=O)OCCN`, the Activity in assay [1] turned out to be 50%. Turning to `CCCCCCCCCCCCCCCCN`, in assay [2], the inhibition result is “Active”. As to `CCCCCCCCCCCCCCCC[N+](C)(C)C`, in assay [2], the inhibition result is “Active”. Consider `CCCCCCCCCCCC(=O)OCCN`, for which the Activity in assay [1] worked out at 74%.

Regarding `CCCCCCCCCCCCCC(=O)OCCN`, in assay [1], the Activity stood at 46%. In the case of `CCCCCCCCCCCCCCOCCCN`, the Activity in assay [1] came out at 71%. As for `CCCCCCCCCCCCCCCC(=O)NCC(=O)O`, the inhibition result in assay [2] is “inactive”.

With `CCCCCCCCCCCCCCCN` [PENTADECYLAMINE], the inhibition entry in assay [2] and in assay [4] was “Active” each time. In assay [3], the IC50 was 5.7 µM. The inhibition in assay [5] was 25%. Further, the inhibition result in assay [6] is “inactive”. As for `CCCCCCCCCCCCCCCCOC(=O)CN`, the Activity in assay [1] amounted to 71%. `CCCCCCCCCCCCCCN`: in assay [2], the inhibition entry is “Active”. As to `CCCCCCCCCCCCCCOC(=O)CN`, the Activity in assay [1] came out at 16%.

Turning to `CCCCCCCCCCCCOC(=O)CCN`, in assay [1], the Activity is 51%. Consider `CCCCCCCCCCCCOCCN`, for which the Activity in assay [1] came out at 40%. For the molecule `CCCCC/C=C\C/C=C\C/C=C\C/C=C\CCCC(=O)NCC(=O)O`, the inhibition result in assay [2] is “inactive”. `CCCCCCCCCC(=O)OCCN`: in assay [1], the Activity was determined as 89%. Take `CCCCCCCCCCCCCOC(=O)CN`: the IC50 in assay [3] turned out to be 11.8 µM. The inhibition in assay [5] amounted to 7%. Moreover, the inhibition result in assay [6] was “inactive”. In assay [7], the inhibition result was “Active”. For the same molecule, in assay [1], the Activity turned out to be 11%.

In general, inhibition refers to the share of the control response that was lost under treatment. As usually defined, the IC50 is the concentration at which inhibition is half-maximal.
